Reference: patent US20170056367A1, “PHARMACEUTICAL COMPOSITIONS FOR INHIBITING THE OSTEOCLAST DIFFERENTIATION COMPRISING EUPATILIN” (OsteoNeuroGen CO., LTD, priority 2015, published 2017)

Legend:
[1] = tested on: IkB, Akt, and GSK3b; test: Phosphorylation of IkB, Akt and GSK3b during differentiation of MBMC into osteoclasts (gel electrophoresis); format: cell-based, mouse; settings: compared to control groups, FIG. 3A
[2] = tested on: mouse bone marrow cells (MBMC); test: Differentiation of mouse bone marrow cells (MBMC) into osteoclasts with M-CSF and RANKL; format: cell-based
Description: Incubation with M-CSF (macrophage-colony stimulating factor) and RANK (receptor activator of NFκB) ligand (RANKL) induced mouse bone marrow cells (MBMC) to differentiate into osteoclasts during which eupatilin was used at various concentrations under monitoring.

[3] = tested on: GSK3b; test: Osteoclast formation upon overexpression of GSK3b; format: cell-based; settings: FIGS. 4A and 4B
[4] = tested on: Ovariectomized mice (OVX); test: Ovariectomized mice (OVX) model of menopausal osteoporosis; format: in vivo, mouse; settings: 50 μM eupatilin, FIG. 8
[5] = tested on: LPS-induced osteoporosis mouse models; test: LPS-induced osteoporosis model; format: in vivo
[6] = tested on: RANK-mediated NF-kB activation; test: NF-kB-luciferase assay; format: cell-based; settings: FIG. 3D
Description: Retroviral overexpression of catalytically active IKKb or Akt induced partial formation of TRP^+ osteoclasts (FIGS. 3B and 3C). An NF-kB-luciferase assay was conducted to examine whether the RANK-mediated NF-kB activation was modulated by eupatilin.

[7] = tested on: Osteoblasts differentiated from mesenchymal stem cells; test: ALP activity of osteoblasts differentiated from mesenchymal stem cells; format: cell-based, mouse; settings: FIG. 9
Description: Osteoblasts differentiated from mesenchymal stem cells were measured for ALP activity in the presence of eupatilin.

[8] = tested on: human peripheral blood mononucleated cells (PBMC); test: Differentiation of human PBMC into osteoclasts; format: cell-based; settings: 50 μM, FIG. 5
From the text: Effects of eupatilin on the differentiation of human PBMC into osteoclasts were observed.

[9] = tested on: TRAP, OSCAR, Integrin av, DC-STAMP, integrin b3, and OC-STAMP; test: Osteoclast differentiation marker gene levels by real-time PCR; format: cell-based, mouse; settings: 50 μM eupatilin, MBMC differentiation, FIG. 2
Description: During the differentiation of MBMC into osteoclasts in the presence of 50 μM eupatilin, the levels of osteoclast differentiation marker genes were measured by real-time PCR.

[10] = tested on: osteoclasts; test: RANKL-mediated bone resorption measured using dentin; format: cell-based
Description: Effects of eupatilin on RANKL-mediated bone-resorption were measured using dentin.

[11] = tested on: mouse bone marrow cells (MBMC); test: Cytotoxicity of eupatilin (FIG. 1D); format: cell-based; settings: at the concentration (50 μM)

RANK-mediated NF-kB activation [6]: inhibit
Structure (SMILES): COc1ccc(-c2cc(=O)c3c(O)c(OC)c(O)cc3o2)cc1OC [eupatilin, 5,7-dihydroxy-3,4,6-trimethoxyflavone]
phosphorylation levels of IkB, Akt, and GSK3b [1]: significantly reduced | osteoclast differentiation ([2]; 50 μM eupatilin, M-CSF and RANKL, FIG. 1A): completely suppressed | F-actin formation in MNCs (immunofluorescence) ([2]; FIG. 1C): significantly reduced | formation of TRP^+ multinucleated osteoclasts (MNCs) ([2]; various concentrations, FIG. 1B): suppressed the formation of TRP^+ multinucleated osteoclasts (MNCs) in a dose-dependent manner | MNCs in the presence of eupatilin upon overexpression of GSK3b [3]: a significant quantity of MNCs was observed | bone density loss (CT) [4]: significantly reduced | LPS-induced osteoporosis (bone density by CT) ([5]; 50 μM eupatilin, LPS intraperitoneally, FIG. 7A): significantly reduced | H&E and TRAP staining ([5]; LPS model, bottom panel of FIG. 7): promote osteanagenesis and inhibit osteoclast differentiation | bone density ([5]; LPS or LPS+ eupatilin, FIGS. 7B to 7E): improve bone density | reduction of the activity of osteoblasts (ALP activity) ([7]; 50 μM): 50% | activity of osteoblasts (ALP activity) ([7]; up to 25 μM): did not influence | expression of c-Fos, NFATc1, p-Akt, p-GSK3b, and p-IkB [8]: significantly reduce | formation of TRP^+ osteoclasts [8]: significantly reduce | levels of the markers TRAP, OSCAR, Integrin av, DC-STAMP, integrin b3, and OC-STAMP [9]: significantly reduced | expression of Pit ([10]; dentin, FIG. 6B): reduced | expression of F-actin for the formation of osteoclast actin rings ([10]; osteoclasts differentiated by RANK signaling, FIG. 6A): remarkably suppressed | expression of Cathepsin K ([10]; time-dependent manner, FIG. 6): significantly decreasing | cytotoxicity [11]: no cytotoxicity
